Laboratory results from article PMC5120670 (European journal of medicinal chemistry, 2016).

How the values were obtained:
[1] = system: T. brucei (bloodstream form strain 427); assay: T. brucei growth inhibition assay; format: cell-based, Trypanosoma brucei; details: for cellular activity improvement compared to 3: relative to compound 3
[2] = target: T1, T. brucei methionyl-tRNA synthetase (TbMetRS) (Trypanosoma brucei brucei, UniProt Q38C91); assay: Enzyme inhibition assay; format: biochemical
T1 sequence (Q38C91 1-773): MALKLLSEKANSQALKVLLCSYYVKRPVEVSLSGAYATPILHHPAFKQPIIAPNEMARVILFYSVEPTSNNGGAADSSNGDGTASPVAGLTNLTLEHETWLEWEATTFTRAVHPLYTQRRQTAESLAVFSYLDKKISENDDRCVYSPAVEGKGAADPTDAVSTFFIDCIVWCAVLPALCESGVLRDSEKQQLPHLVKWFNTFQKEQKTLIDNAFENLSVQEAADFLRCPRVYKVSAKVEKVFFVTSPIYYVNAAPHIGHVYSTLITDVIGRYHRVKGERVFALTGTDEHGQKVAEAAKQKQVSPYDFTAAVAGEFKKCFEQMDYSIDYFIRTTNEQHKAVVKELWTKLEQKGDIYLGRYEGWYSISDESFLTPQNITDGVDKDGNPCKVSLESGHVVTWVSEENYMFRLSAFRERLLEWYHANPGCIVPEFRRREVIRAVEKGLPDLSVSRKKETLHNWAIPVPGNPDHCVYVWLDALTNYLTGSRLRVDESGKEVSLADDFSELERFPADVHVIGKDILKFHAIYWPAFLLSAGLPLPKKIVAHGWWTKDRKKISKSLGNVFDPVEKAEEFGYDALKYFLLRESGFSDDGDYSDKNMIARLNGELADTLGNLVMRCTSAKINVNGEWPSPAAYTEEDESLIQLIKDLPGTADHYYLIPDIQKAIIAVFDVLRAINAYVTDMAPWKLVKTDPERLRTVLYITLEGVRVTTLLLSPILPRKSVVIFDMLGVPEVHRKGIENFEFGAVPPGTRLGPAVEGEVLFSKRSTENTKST

[3] = system: hepatocellular carcinoma cell line (Hep G2); assay: Mammalian cell growth inhibition assay, Hep G2; format: cell-based; details: Homo sapiens, HepG2, 48 h, read-out: Hep G2 EC50
PK studies in mice = format: in vivo; details: for AUC: mice, oral administration at 50 mg/kg
[4] = system: human lymphoblast cell line (CRL-8155); assay: Mammalian cell growth inhibition assay, CRL-8155
[5] = Distribution of compounds between mouse plasma and brain; format: in vivo; details: mice, 5 mg/kg IP, 60 min after injection

For `Clc1cc(Cl)cc(CCN2CCCC(c3nc4nc(Cl)ccc4[nH]3)C2)c1` (stereo not drawn) [Compound 10, 5-chloro-2-(1-(3,5-dichlorophenethyl)piperidin-3-yl)-1H-imidazo[4,5-b]pyridine], the “decreased potency compared to 6” value ([1]; relative to compound 6) was “around 3 fold”.
For `Clc1cc(Cl)cc(CNC2CCCN(c3nc4nc(Cl)ccc4[nH]3)C2)c1` (stereo not drawn) [Compound 14, 1-(5-chloro-1H-imidazo[4,5-b]pyridin-2-yl)-N-(3,5-dichlorobenzyl)piperidin-3-amine], the IC50 [2] was under 50 nM and the “lower EC50 compared to compound 12” value ([1]; relative to compound 12) was ~ 4 fold.
With `CN(CCNCc1cc(Cl)cc(Cl)c1)c1nc2nc(Cl)ccc2[nH]1` [Compound 31, N1-(5-chloro-1H-imidazo[4,5-b]pyridin-2-yl)-N2-(3,5-dichlorobenzyl)-N1-methylethane-1,2-diamine] the IC50 [2] was under 50 nM, the EC50 ([1]; Trypanosoma brucei, 48 h) was 22 nM and the “lower EC50 compared to compound 29” value ([1]; relative to compound 29) was ~ 3 fold. It also gave an EC50 [3] of 39200 nM, an AUC (PK studies in mice) of 952 min*µ mol/L and a Cmax (PK studies in mice; mouse, whole blood, po, 50 mg/kg) of 9.7 µM. For the same compound, the EC50 ([4]; Homo sapiens, CRL8155, 48 h, read-out: CRL-8155 EC50) was 22600 nM and the selectivity index ([4]; mammalian cells versus T. brucei) was 1027.
With `Clc1cc(Cl)cc(CN[C@H]2CCCN(c3nc4nc(Cl)ccc4[nH]3)C2)c1` [Compound 16, (S)-1-(5-chloro-1H-imidazo[4,5-b]pyridin-2-yl)-N-(3,5-dichlorobenzyl) piperidin-3-amine] the IC50 [2] was under 50 nM, the “lower EC50 compared to R-isomer 15” value ([1]; relative to compound 15) was over 25 fold and the AUC (PK studies in mice) was 6223 min*µ mol/L. The brain levels [5] was “nearly undetectable”.
In the case of `Clc1cc(Cl)cc(CNC2CCCC(c3nc4nc(Cl)ccc4[nH]3)C2)c1` (stereo not drawn) [Compound 12, 3-(5-chloro-1H-imidazo[4,5-b]pyridin-2-yl)-N-(3,5-dichlorobenzyl) cyclohexanamine], the “lower EC50 compared to 6” value ([1]; relative to compound 6) is reported as 4 fold.
In the case of `O=C(Cc1cc(Cl)cc(Cl)c1)N1CCCC(c2nc3cc(Cl)ccc3[nH]2)C1` (stereo not drawn) [Compound 6, 1-(3-(5-chloro-1H-benzo[d]imidazol-2-yl)piperidin-1-yl)-2-(3,5-dichlorophenyl) ethanone], the “cellular activity improvement compared to 3” value [1] is reported as “approximately 5 fold”.
In the case of `O=C(Cc1cc(Cl)cc(Cl)c1)N1CCCC(c2nc3nc(Cl)ccc3[nH]2)C1` (stereo not drawn) [Compound 7, 1-(3-(5-chloro-1H-imidazo[4,5-b]pyridin-2-yl)piperidin-1-yl)-2-(3,5-dichlorophenyl)ethanone], the IC50 [2] is reported as under 50 nM and the “cellular activity improvement compared to 3” value [1] is reported as “approximately 5 fold”.
For `Clc1cc(Cl)cc(CN[C@H]2CCN(c3nc4ccc(Cl)nc4[nH]3)C2)c1` [Compound 24, (S)-1-(5-chloro-3H-imidazo[4,5-b]pyridin-2-yl)-N-(3,5-dichlorobenzyl) pyrrolidin-3-amine], the IC50 [2] was under 50 nM and the “more potent than the R-isomer 23” value ([1]; relative to compound 23) was ~ 6 fold.
